Test: Moisture Sorption Gravimetric Analysis (SGA), hygroscopicity
Assay type: physicochemical
Conditions: isothermal 25° C., 5 to 95 % RH
Procedure: Moisture Sorption Gravimetric Analysis (SGA). Utilizing a dynamic SGA100 from VTI, adsorption and desorption profiles were obtained with the following conditions: 1) Isothermal @ 25° C.; 2) Maximum Equilibration Time of 10 minutes; 3) 0.0010 wt % in 5 minutes; and 4) % RH (Relative Humidity) Steps of 5 to 95, and 95 to 5 @ 5% increments.

In the case of `CO/N=C1\C[C@]2(C[C@@H]3C[C@@H](C/C=C(\C)C[C@@H](C)/C=C/C=C4\CO[C@@H]5[C@H](O)C(C)=C[C@@H](C(=O)O3)[C@]45O)O2)O[C@H](/C(C)=C/C(C)C)[C@H]1C` [Crystalline moxidectin, moxidectin], the hygroscopicity is reported as “almost non-hygroscopic”.
With `CO/N=C1\C[C@]2(C[C@@H]3C[C@@H](C/C=C(\C)C[C@@H](C)/C=C/C=C4\CO[C@@H]5[C@H](O)C(C)=C[C@@H](C(=O)O3)[C@]45O)O2)O[C@H](/C(C)=C/C(C)C)[C@H]1C` [amorphous moxidectin, moxidectin] the hygroscopicity was “slightly hygroscopic”.

Source: patent US9044453B2, “Long-acting injectable moxidectin formulations and novel moxidectin crystal forms” (MERIAL, INC., priority 2011, dated 2015)
